Results taken from US12291508B2, “Hydrazide containing nuclear transport modulators and uses thereof” (Karyopharm Therapeutics Inc., priority 2011, dated 2025).

Key:
[1] = target: T1, CRM1-mediated nuclear export (Homo sapiens, UniProt O14980); test: RevGFP assay, inhibition of nuclear export; type: cell-based; settings: U2OS-RevGFP cells, about 1 hr incubation; read-out: Rev Export
T1 construct: endogenous in cells; host or cells: U2OS-RevGFP cells
Experimental: The ability of exemplary compounds of the invention to inhibit CRM1-mediated nuclear export was assessed in a RevGFP assay. Rev is a protein from human immunodeficiency virus type 1 (HIV-1) and contains a nuclear export signal (NES) in its C-terminal domain and a nuclear localization signal (NLS) in its N-terminal domain. Nuclear export of Rev protein is dependent on the classical NES/CRM1 pathway (Neville et al. 1997).
In this assay, U2OS-RevGFP cells were seeded onto clear-bottomed, black, 384-well plates the day before the experiment. Compounds were serially diluted 1:2 in DMEM, starting from 40 μM in a separate, 384-well plate, and then transferred onto the cells. The cells were incubated with compound for about 1 hr before fixation with 3.7% formaldehyde and nuclei staining with Hoechst 33258. The amount of GFP in cell nuclei was measured and the IC50 of each compound was determined (Kau et al. 2003).

[2] = test system: MM.1S multiple myeloma cell line; test: CellTiter 96 AQueous One Solution cell proliferation assay, MM.1S; type: cell-based; settings: Homo sapiens, MM1.S, 72 h of treatment, read-out: Cytotoxicity Assay
Excerpt: The CellTiter 96® AQueous One Solution cell proliferation assay (Promega) was used on MM.1S multiple myeloma cell line to study the cytotoxic and cytostatic properties of the compounds. The assay is based on the cleavage of the tetrazolium salt, MTS, in the presence of an electron-coupling reagent PES (phenazine ethosulfate). The MTS tetrazolium compound is bioreduced by cells into a colored formazan product that is soluble in tissue culture medium. This conversion is presumably accomplished by NADPH or NADH produced by dehydrogenase enzymes in metabolically active cells. Assays are performed by adding a small amount of the CellTiter 96® AQueous One solution reagent directly to culture wells, incubating for 1-4 hours and then recording the absorbance at 490 nm with a 96-well plate reader.
The cells were seeded at 5×10^3 to 1.5×10^4 cells in each well of a 96-well plate in 100 μL of fresh culture medium and adherent cells were allowed to attach overnight. The stock solutions of the compounds were diluted in cell culture medium to obtain eight concentrations of each drug, ranging from 1 nM to 30 μM and DMSO at less than 1% v/v was used as a negative control. The resulting drug solutions were transferred onto the cells. After 72 h of treatment, 20 μl of CellTiter 96® AQueous reagent was added into each well of the 96-well assay plates and the plate was incubated at 37° C. for 1-4 hours in a humidified, 5% CO2 atmosphere. Then the absorbance of each well was recorded at 490 nm using a 96-well plate reader. In most cases, the assay was performed in triplicate and the results were presented as half maximal inhibitory concentration (IC50). Optical density versus compound concentration was plotted and analyzed using non-linear regression equations (IDBS XLfit) and the IC50 for each compound was calculated.

[3] = Pharmacokinetic (PK) assay, plasma AUC in mice; type: in vivo; settings: mouse, plasma, 10 mg/kg po
Experimental: AUC. Blood was collected from mice (N=3) to contribute to the total of 10 time points (pre-dose, 5 min, 15 min, 30 min, 1 hour, 2 hours, 4 hours, 8 hours, 12 hours and 24 hours post dose). Mice were bled on a rotating basis, each mouse contributing 3 time points to the blood collection. At the designated time points, animals were anaesthetized under isoflurane, and approximately 110 μL of blood per time point was collected via retro-orbital puncture into pre-cooled K2EDTA (anti-coagulant) tubes. Blood samples were put on wet ice and centrifuged (2000 g, 5 min at 4° C.) to obtain plasma within 30 minutes of sample collection. All samples were stored frozen at approximately −80° C. until analysis. Prior to analysis, samples were mixed with internal standard (dexamethasone) in acetonitrile, vortexed, centrifuged, and supernatant was injected for analysis. Concentration of compounds in plasma was determined using LC-MS-MS instrumentation (API 4000, Triple Quadruple with electrospray ionization; Acuity Ultra Performance Liquid Chromatography column C18, with MeOH and formic acid as organic solvents). AUC values were calculated using WinNonlin Professional 6.2 software package, non-compartmental pharmacokinetic model NCA200.

[4] = Brain to Plasma (B:P) ratio in mice; type: in vivo; settings: mouse, brain/plasma, 10 mg/kg po, 2 hours post-dose
Experimental: Brain to Plasma (B:P) Ratio. […] Following collection, brain tissue was rinsed with cold saline, dried on filter paper, weighed and snap-frozen by placing on dry ice. All samples were stored frozen at approximately −80° C. until analysis. […] Plasma samples were treated with the identical method (except homogenization step) and the concentration of compound in each matrix was calculated based on generated standard curves.

T1 sequence (O14980 whole entry): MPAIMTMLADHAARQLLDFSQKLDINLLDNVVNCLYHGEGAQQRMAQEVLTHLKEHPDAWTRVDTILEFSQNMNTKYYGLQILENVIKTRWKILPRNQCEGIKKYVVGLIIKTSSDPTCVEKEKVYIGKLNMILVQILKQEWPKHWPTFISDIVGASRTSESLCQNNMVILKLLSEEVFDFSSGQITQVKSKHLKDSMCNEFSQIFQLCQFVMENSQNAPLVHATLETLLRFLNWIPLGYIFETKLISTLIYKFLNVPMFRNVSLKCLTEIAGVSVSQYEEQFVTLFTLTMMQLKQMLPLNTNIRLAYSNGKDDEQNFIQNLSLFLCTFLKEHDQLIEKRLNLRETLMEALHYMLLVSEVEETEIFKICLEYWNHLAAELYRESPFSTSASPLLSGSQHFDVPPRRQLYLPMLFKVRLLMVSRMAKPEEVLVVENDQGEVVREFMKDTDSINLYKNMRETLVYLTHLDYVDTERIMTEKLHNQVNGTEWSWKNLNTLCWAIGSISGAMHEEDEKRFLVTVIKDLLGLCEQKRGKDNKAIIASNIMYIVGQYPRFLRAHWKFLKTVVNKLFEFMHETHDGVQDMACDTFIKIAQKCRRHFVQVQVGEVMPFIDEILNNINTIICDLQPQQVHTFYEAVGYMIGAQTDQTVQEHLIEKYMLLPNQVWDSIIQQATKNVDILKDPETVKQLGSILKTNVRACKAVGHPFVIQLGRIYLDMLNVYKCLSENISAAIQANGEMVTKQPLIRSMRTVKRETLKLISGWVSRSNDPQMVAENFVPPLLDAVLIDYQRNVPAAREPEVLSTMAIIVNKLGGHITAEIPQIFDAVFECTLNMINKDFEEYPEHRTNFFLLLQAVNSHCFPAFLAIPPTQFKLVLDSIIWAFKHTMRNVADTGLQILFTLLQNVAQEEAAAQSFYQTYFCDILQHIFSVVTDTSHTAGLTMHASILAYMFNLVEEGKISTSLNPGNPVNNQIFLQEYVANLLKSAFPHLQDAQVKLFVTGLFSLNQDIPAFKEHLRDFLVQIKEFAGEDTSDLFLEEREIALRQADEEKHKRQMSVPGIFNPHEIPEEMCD

IC50 [1]: ≤ 1000 nM
AUC(0-inf) [3]: 24900 ng·h/mL
Kp at 2 h [4]: 0.13
Structure (SMILES): O=C(/C=C\n1cnc(-c2cc(C(F)(F)F)cc(C(F)(F)F)c2)n1)NNc1cc(Cl)ncn1 [Compound I-12, (Z)-3-(3-(3,5-bis(trifluoromethyl)phenyl)-1H-1,2,4-triazol-1-yl)-N′-(6-chloropyrimidin-4-yl)acrylohydrazide]
IC50 [2]: ≤ 1000 nM
